Reference: US10023591B2, “Heterocyclic derivatives and use thereof” (C&C RESEARCH LABORATORIES, priority 2014, dated 2018)

How the values were obtained:
[1] = test system: NCI-N87 stomach cancer cell line; test: Cell growth inhibition assay, NCI-N87 (CellTiter-Glo); assay type: cell-based; settings: Homo sapiens; NCI-N87, 5,000 cells/well, 96 hours
Description: The inhibitory effects of the compounds of the present invention against the growth of cancer cells were evaluated as shown below. The cancer cell lines including prostate cancer cell lines (LNCaP, DU-145), stomach cancer cell line (NCI-N87), and breast cancer cell lines (MDA-MB-468) were cultured under the protocol provided by each supplier. A medium supplemented with 10 ng/mL of IL-6 was used for LNCaP, a prostate cancer cell line, when treated with a drug. Each type of cells to be used in experiments was sub-cultured in a 96-well plate by counting the exact number of cells using Tali™ Image-based Cytometer (Life Technologies). In a 96-well plate, DU-145 was employed with 3,000 cells/well; NCI-N87 was employed with 5,000 cells/well; and LNCaP and MDA-MB-468 were employed with 10,000 cells/well. The cells were treated with the compounds listed in Examples which were diluted in various concentrations. Upon completion of the compounds treatment, LNCaP, DU-145, NCI-N87 cells were cultured at 37° C. under 5% CO2 for 96 hours, and MDA-MB-468 cells were cultured at 37° C. in air for 96 hours. Subsequently, the cells were observed under microscope and drug precipitation and particular findings were investigated and recorded. And then, the 96-well plate was placed at room temperature for 30 minutes, added with 20 pt/well of CellTiter-Glo solution (Cat No. G7573, Promega) and shaken for 10 minutes, followed by being subjected to the measurement using PHERAstar™ microplate reader (BMG LABTECH) according to the supplier's general luminometer protocol. Wells where only culture liquid added without cell plating were used as a negative control, whereas wells where culture liquid containing 0.1% DMSO instead of the compounds listed in Examples were used as a positive control.

STAT1 = STAT1 reporter gene assay (luciferase), U2OS stable cell line pGL4-STAT1-TA-luc, IFN-γ stimulation; assay type: cell-based, human; settings: Homo sapiens, IFN-γ 50 ng/mL, 8 hours, read-out: IC50 (μM) pSTAT1
Description: 1-2) Experiment on the Inhibition of STAT1 Activity
A human osteosarcoma cell line (U2OS stable cell line; pGL4-STAT1-TA-luc), which contains a stably operating STAT1 promoter, was cultured in McCoy 5′A medium (Cat No. 16600, Life Technologies) containing 10% FBS (Cat No. SH30396, Thermo Scientific) and 1000 μg/mL G418 solution (Cat No. 04 727 894 001, Roche). The reporter gene assay using U2OS stable cell line was performed in McCoy 5′A medium containing 10% FBS without G-418 solution. U2OS stable cells were plated in two (2) white 96-well plates with 25,000 cells/50 pt in each well. The cells were cultured at 37° C., under 5% CO2 for 24 hours, and then treated with the compounds listed in Examples which were diluted in various concentrations. Subsequently, IFN-γ was added to each well with a final concentration of 50 ng/mL. Upon completion of the treatment with the compounds and IFN-γ, the cells were cultured at 37° C., under 5% CO2 for 8 hours. The plates were observed under microscope and drug precipitation and particular findings were investigated and recorded.
(§1) The luciferase assay and the cell viability assay were performed respectively with one of two plates. For the luciferase assay, the liquid media in the 96-well plate was removed, and then, 20 μL of passive cell lysis buffer was added to each well. After shaking the plate for 30 minutes, luciferase activities of each well were measured in a PHERAstar™ microplate reader (BMG LABTECH) using a luciferase assay system (Cat No. E1501, Promega). For the cell viability assay, the 96-well plate was placed at room temperature for 30 minutes, added with 20 μL/well of CellTiter-Glo solution (Cat No. G7573, Promega), and shaken for 10 minutes in order to measure cytotoxicity caused by the compounds listed in Examples with a PHERAstar™ microplate reader (BMG LABTECH). Wells without 0.1% DMSO and stimulation were used as a negative control and wells with 0.1% DMSO and stimulation were used as a positive control.
(§2) The results of evaluation on the inhibitory effect of the compounds listed in the Examples on the dimerization of STAT3 and STAT1 obtained via the STAT3 and STAT1 reporter gene assays are shown in Table 9 below.

STAT3 = STAT3 reporter gene assay (luciferase), LNCaP stable cell line pSTAT3-TA-luc, IL-6 stimulation; assay type: cell-based, human; settings: Homo sapiens
Description: 1-1) Experiment on the Inhibition of STAT3 Activity
A human prostate cancer cell line (LNCaP stable cell line; plasmid pSTAT3-TA-luc), which contains a stably operating STAT3 promoter, was cultured in RPMI1640 medium (Cat No. 11875, Life Technologies) containing 10% fetal bovine serum (FBS) (Cat No. SH30396, Thermo Scientific) and 150 μg/mL G-418 solution (Cat No. 04 727 894 001, Roche). The reporter gene assay using LNCaP stable cell line was performed in RPMI1640 medium containing 3% DCC-FBS without G-418 solution. LNCaP stable cells were plated in two (2) white 96-well plates with 30,000 cells/50 μL in each well. The cells were cultured at 37° C., under 5% CO2 for 24 hours, and then treated with the compounds listed in Examples which were diluted in various concentrations. Subsequently, IL-6 was added to each well with a final concentration of 10 ng/mL. Upon completion of the treatment with the compounds and IL-6, the cells were cultured at 37° C., under 5% CO2 for 24 hours. The plates were observed under microscope and drug precipitation and particular findings were investigated and recorded.
as §1, with “one of the two plates.” for “one of two plates.”, “then, 20 μL, of passive” for “then, 20 μL of passive”
as §2

| IC50 [1] | IC50 (STAT1) | IC50 (STAT3) | Compound |
| --- | --- | --- | --- |
| 0.0093 µM | > 50 µM | 0.0057 µM | CC(C)(c1cc(Cl)cc(NC(=O)c2cc3cc(C(C)(C)S(C)(=O)=O)ccc3s2)c1)c1cc(OC2CC2)cc(OC(F)(F)F)c1 [Example 15, N-(3-chloro-5-(2-(3-cyclopropoxy-5-(trifluoromethoxy)phenyl)propan-2-yl)phenyl)-5-(2-(methylsulfonyl)propan-2-yl)benzo[b]thiophene-2-carboxamide] |
| 0.052 µM | > 50 µM | 0.1 µM | CC(C)(c1ccc2sc(C(=O)Nc3cc(F)nc(Oc4ccc(Cl)cc4)c3)cc2c1)S(C)(=O)=O [Example 77, N-(2-(4-chlorophenoxy)-6-fluoropyridin-4-yl)-5-(2-(methylsulfonyl)propan-2-yl)benzo[b]thiophene-2-carboxamide] |
| 5.5 µM | 33.5 µM | > 10 µM | CCN1CCC2(CCN(c3cc(NC(=O)c4cc5cc(C(C)(C)S(C)(=O)=O)ccc5s4)cc(Cl)n3)C2)C1 (centres unmarked) [Example 107, N-(2-chloro-6-(7-ethyl-2,7-diazaspiro[4.4]nonan-2-yl)pyridin-4-yl)-5-(2-(methylsulfonyl)propan-2-yl)benzo[b]thiophene-2-carboxamide] |
| 0.25 µM | 42.1 µM | 0.064 µM | CC(C)(c1ccc(Cl)cc1)c1cc(Cl)cc(NC(=O)c2cc3cc(CS(C)(=N)=O)ccc3s2)c1 (centres unmarked) [Example 36, N-(3-chloro-5-(2-(4-chlorophenyl)propan-2-yl)phenyl)-5-((S-methylsulfonimidoyl)methyl)benzo[b]thiophene-2-carboxamide] |
| 0.068 µM | > 50 µM | 0.0093 µM | CC(C)(c1ccc2sc(C(=O)Nc3cc(Cl)nc(OC4CC=C(Cl)CC4)c3)cc2c1)S(C)(=O)=O (centres unmarked) [Example 101, N-(2-chloro-6-((4-chlorocyclohex-3-en-1-yl)oxy)pyridin-4-yl)-5-(2-(methylsulfonyl)propan-2-yl)benzo[b]thiophene-2-carboxamide] |
| 0.27 µM | > 50 µM | 0.18 µM | Cc1noc(C)c1Oc1cc(NC(=O)c2cc3cc(C(C)(C)S(C)(=O)=O)ccc3s2)cc(Cl)n1 [Example 113, N-(2-chloro-6-((3,5-dimethylisoxazol-4-yl)oxy)pyridin-4-yl)-5-(2-(methylsulfonyl)propan-2-yl)benzo[b]thiophene-2-carboxamide] |
| – | 3.1 µM | 0.39 µM | CC(C)(c1ccc2sc(C(=O)Nc3cc(Cl)nc(Oc4ccc(Cl)cc4)n3)cc2c1)S(C)(=O)=O [Example 76, N-(6-chloro-2-(4-chlorophenoxy)pyrimidin-4-yl)-5-(2-(methylsulfonyl)propan-2-yl)benzo[b]thiophene-2-carboxamide] |
| – | > 50 µM | 0.08 µM | CC(C)(c1ccc2sc(C(=O)Nc3cc(Cl)cc(Oc4ccc(Cl)cn4)c3)cc2c1)S(C)(=O)=O [Example 61, N-(3-chloro-5-((5-chloropyridin-2-yl)oxy)phenyl)-5-(2-(methylsulfonyl)propan-2-yl)benzo[b]thiophene-2-carboxamide] |
| – | > 50 µM | 0.0013 µM | COc1sccc1C(C)(C)c1cc(Cl)cc(NC(=O)c2cc3cc(C(C)(C)S(C)(=O)=O)ccc3s2)c1 [Example 30, N-(3-chloro-5-(2-(2-methoxythiophen-3-yl)propan-2-yl)phenyl)-5-(2-(methylsulfonyl)propan-2-yl)benzo[b]thiophene-2-carboxamide] |
| – | > 50 µM | 0.21 µM | CC(C)(c1ccc2cc(C(=O)Nc3cc(Cl)cc(Oc4ccc(Cl)cc4)c3)[nH]c2c1)S(C)(=O)=O [Example 40, N-(3-chloro-5-(4-chlorophenoxy)phenyl)-6-(2-(methylsulfonyl)propan-2-yl)-1H-indole-2-carboxamide] |
| – | 8.6 µM | 6 µM | COC(=O)c1cc(Oc2cc(NC(=O)c3cc4cc(C(C)(C)S(C)(=O)=O)ccc4s3)cc(Cl)n2)no1 [Example 118, methyl 3-((6-chloro-4-(5-(2-(methylsulfonyl)propan-2-yl)benzo[b]thiophene-2-carboxamido)pyridin-2-yl)oxy)isoxazole-5-carboxylate] |
| – | > 50 µM | 0.067 µM | CC(C)(c1ccc(F)cc1)c1cc(Br)cc(NC(=O)c2cc3cc(C(C)(C)S(C)(=O)=O)ccc3s2)c1 [Example 20, N-(3-bromo-5-(2-(4-fluorophenyl)propan-2-yl)phenyl)-5-(2-(methylsulfonyl)propan-2-yl)benzo[b]thiophene-2-carboxamide] |
| – | > 50 µM | 0.078 µM | CC(C)(c1cc2cc(C(=O)Nc3cc(Cl)cc(Oc4ccc(Cl)cc4)c3)sc2cn1)S(C)(=O)=O [Example 50, N-(3-chloro-5-(4-chlorophenoxy)phenyl)-5-(2-(methylsulfonyl)propan-2-yl)thieno[2,3-c]pyridine-2-carboxamide] |
| – | > 50 µM | 0.061 µM | CC(C)(c1cc(Cl)cc(NC(=O)c2cc3cc(C(C)(C)S(C)(=O)=O)ccc3s2)c1)c1cc(OCCN2CCOCC2)cc(OC(F)(F)F)c1 [Example 8, N-(3-chloro-5-(2-(3-(2-morpholinoethoxy)-5-(trifluoromethoxy)phenyl)propan-2-yl)phenyl)-5-(2-(methylsulfonyl)propan-2-yl)benzo[b]thiophene-2-carboxamide] |
| – | > 50 µM | 0.0051 µM | COc1cc(OC(F)(F)F)cc(C(C)(C)c2cc(Cl)cc(NC(=O)c3cc4cc(C(C)(C)S(C)(=O)=O)ccc4s3)n2)c1 [Example 91, N-(4-chloro-6-(2-(3-methoxy-5-(trifluoromethoxy)phenyl)propan-2-yl)pyridin-2-yl)-5-(2-(methylsulfonyl)propan-2-yl)benzo[b]thiophene-2-carboxamide] |
| – | > 50 µM | 0.12 µM | CC(C)(c1ccc2sc(C(=O)Nc3cc(Cl)cc(Oc4ccc(Cl)nc4)c3)cc2c1)S(C)(=O)=O [Example 60, N-(3-chloro-5-((6-chloropyridin-3-yl)oxy)phenyl)-5-(2-(methylsulfonyl)propan-2-yl)benzo[b]thiophene-2-carboxamide] |
